Here are results for 2 molecules from US8754036B2, “Method for treating neuropathic pain” (National University Corporation Nagoya University, priority 2007, dated 2014).

In this assay the test system is neurons from primary cortical nerve tissue. The assay can be described thus: Suppression of Rho kinase activation (neurite lengths, keratan sulfate, Y27632). Type of assay: cell-based, mice. As to the method:
Next, participation of Rho kinase was investigated in order to investigate the action mechanism of keratanase II in the above Experiment 1. The neurons were seeded onto an 8-well chamber to which a test sample was applied by the same manner as in the method of Experiment 1. Twenty-four hours after starting the incubation of the neurons, 15 μM of Y27632 (Rho kinase inhibitor, Sigma) was added to the neurons followed by incubating for 24 hours more. After that, the chamber was fixed with 4% of paraformaldehyde and the neurons were identified by an immunohistochemical means with Neuronal Class IIIβ tubulin (TUJ1) antibody (COVANCE). The neurite lengths were measured of from 80 to 90 neurons per condition, an average value thereof was calculated and shown by a graph. The test sample was the following four types.
(1) that which was applied with 25 μg/mL of poly-L-lysine (Sigma; hereinafter, the same) followed by being applied with 10 μg/mL of laminin (BD Biosciences; hereinafter, the same).
(2) that which was applied with 25 μg/mL of poly-L-lysine followed by being applied with 10 μg/mL of laminin and 20 μg/mL of keratan sulfate (Seikagaku Corporation; hereinafter, the same).
(3) that which was applied with 25 μg/mL of poly-L-lysine followed by being applied with 10 μg/mL of laminin and 40 μg/mL of keratan sulfate. […]

For `C[C@@H](N)[C@H]1CC[C@H](C(=O)Nc2ccncc2)CC1` [Y27632], under “keratan sulfate on poly-L-lysine/laminin, Y27632 15 μM or Ks36 keratanase II 0.01 U/mL without Y27632”, the “release of inhibiting action for elongation of neurite lengths induced by keratan sulfate” value is “released”.
For keratan sulfate, the “effect on elongation of the neurite lengths” value (keratan sulfate 20 or 40 μg/mL on poly-L-lysine/laminin) is reported as “induces the inhibition”.
